Data as given in the supplement of paper PMC10307832.

How the values were obtained:
Assay in all cases: relative viability (nuclei count vs DMSO), 5 days (fraction); higher = more cells survive
[1] = compound: Nc1nc2[nH]cc(CCc3ccc(C(=O)N[C@@H](CCC(=O)O)C(=O)O)cc3)c2c(=O)[nH]1 [Pemetrexed]
Summary of the method: (§1)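 Lung cancer cell lines received five library-drug doses (not always all listed) spaced by √10, pinned on vehicle-anchored 1536-well plates after an overnight stay at 37 °C. Five days later, with no medium change, nuclei were Hoechst-stained, imaged at 4× and counted with MetaXpress. Viability is treated-well nuclei relative to vehicle-well nuclei, as a median across plates. Passing plates had control CV below 25% and at least one doubling.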

[2] = compound: CC[C@H](Nc1ncnc2[nH]cnc12)c1nc2cccc(F)c2c(=O)n1-c1ccccc1 [Idelalisib]
Summary of the method: as §1

[3] = compound: CC[C@H](Nc1ncnc2[nH]cnc12)c1nc2cccc(F)c2c(=O)n1-c1ccccc1 [Idelalisib] + COc1cccc2cc(-c3nc([C@H]4CC[C@H](C(=O)O)CC4)n4ncnc(N)c34)[nH]c12 [OSI-027] (partner 0.5 µM)
Summary of the method: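 Lung cancer cell lines, seeded in 1536-well plates, were treated the following day by pin tool with a single drug or with five library-drug doses (not always all listed) in √10 steps on top of a fixed anchor-drug dose. Cells were fixed and nuclei stained in one step after 5 days, and nuclei were counted. Relative viability is the nuclei count for treated wells divided by that for vehicle wells, reported as medians of duplicate plates.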

| Cell Line | relative viability ([1]; 0.002 µM) | relative viability ([1]; 0.006325 µM) | relative viability ([1]; 0.02 µM) | relative viability ([1]; 0.06325 µM) | relative viability ([1]; 0.2 µM) | relative viability ([2]; 0.04 µM) | relative viability ([2]; 0.1265 µM) | relative viability ([2]; 0.4 µM) | relative viability ([2]; 1.265 µM) | relative viability ([2]; 4 µM) | relative viability ([1]; 0.2 µM, anchor plate) | relative viability ([3]; first compound 0.04 µM) | relative viability ([3]; first compound 0.1265 µM) | relative viability ([3]; first compound 0.4 µM) | relative viability ([3]; first compound 1.265 µM) | relative viability ([3]; first compound 4 µM) |
| --- | --- | --- | --- | --- | --- | --- | --- | --- | --- | --- | --- | --- | --- | --- | --- | --- |
| A549 | 0.938 | 0.948 | 1.09 | 0.973 | 1.01 | 1.01 | 0.956 | 0.747 | 1.04 | 0.825 |  |  |  |  |  |  |
| EMC-BAC-2 | 0.868 | 1.04 | 1.12 | 0.966 | 0.782 | 1.25 | 0.989 | 0.878 | 1.01 | 1.11 | 0.444 | 0.388 | 0.411 | 0.308 | 0.363 | 0.352 |
| ChaGo-K-1 | 1.05 | 0.942 | 0.98 | 0.418 | 0.312 | 1.09 | 0.914 | 0.946 | 1.02 | 0.992 | 0.261 | 0.618 | 0.55 | 0.456 | 0.576 | 0.513 |
| NCI-H2023 | 0.762 | 0.87 | 1.11 | 0.802 | 0.292 | 1.05 | 0.973 | 0.792 | 0.818 | 0.968 | 0.249 | 0.473 | 0.339 | 0.285 | 0.278 | 0.313 |
| EKVX | 0.854 | 0.984 | 1.03 | 0.995 | 0.734 | 0.925 | 1.01 | 0.849 | 0.854 | 0.8 | 0.404 | 0.705 | 0.709 | 0.527 | 0.557 | 0.586 |
| NCI-H2085 | 0.947 | 0.979 | 1.08 | 1.03 | 0.98 | 1.05 | 0.995 | 0.91 | 0.955 | 0.729 | 0.921 | 0.738 | 1.01 | 0.521 | 0.725 | 0.325 |
| NCI-H3122 | 1.01 | 0.953 | 1.02 | 0.951 | 0.576 | 1.03 | 0.989 | 1 | 0.977 | 1.03 | 0.201 | 0.879 | 0.952 | 0.729 | 0.941 | 0.764 |
| HCC-827 | 0.908 | 1.09 | 1.05 | 1.02 |  | 1.08 | 1.05 | 1.01 | 1.08 | 0.952 |  | 0.928 | 0.738 | 0.759 | 0.698 | 0.659 |
| HARA | 0.944 | 1.05 | 1.12 | 0.904 | 0.225 | 1.02 | 1.05 | 0.783 | 1.23 | 0.794 | 0.241 | 0.618 | 0.466 | 0.296 | 0.374 | 0.441 |
| NCI-H1299 | 1.01 | 0.998 | 1.06 | 0.991 | 0.959 | 1.02 | 1.07 | 1.03 | 1.04 | 1 |  |  |  |  |  |  |
| Calu-6 | 0.92 | 0.96 | 1.1 | 1 | 0.886 | 1.04 | 1.04 | 0.977 | 0.998 | 0.947 |  |  |  |  |  |  |
